PubChem BioAssay (NCI)
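Following 48 hours of exposure in 96-well plates, responses at five concentrations were used to interpolate endpoints linearly. Definition used: TGI = concentration required for complete inhibition of growth.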

Assays:
Assay in all cases: NCI anticancer screen, dose series, 48 h
MOLT-4 leukemia = test system: MOLT-4 leukemia
OVCAR-3 ovarian = test system: OVCAR-3 ovarian
NCI-H23 lung = test system: NCI-H23 lung
U251 CNS = test system: U251 CNS
ACHN renal = test system: ACHN renal
NCI-H522 lung = test system: NCI-H522 lung
DLD-1 colon = test system: DLD-1 colon
NCI-H460 lung = test system: NCI-H460 lung
RXF 393 renal = test system: RXF 393 renal
SF-295 CNS = test system: SF-295 CNS
DMS 273 small cell lung = test system: DMS 273 small cell lung
SNB-75 CNS = test system: SNB-75 CNS
M14 melanoma = test system: M14 melanoma
SK-MEL-5 melanoma = test system: SK-MEL-5 melanoma
OVCAR-4 ovarian = test system: OVCAR-4 ovarian
IGROV1 ovarian = test system: IGROV1 ovarian
A549 NSCLC = test system: A549 NSCLC
HCC-2998 colon = test system: HCC-2998 colon
OVCAR-5 ovarian = test system: OVCAR-5 ovarian
MALME-3M melanoma = test system: MALME-3M melanoma
HOP-92 NSCLC = test system: HOP-92 NSCLC
M19-MEL melanoma = test system: M19-MEL melanoma
SNB-78 CNS = test system: SNB-78 CNS
CCRF-CEM leukemia = test system: CCRF-CEM leukemia
SN12C renal = test system: SN12C renal
CAKI-1 renal = test system: CAKI-1 renal
UO-31 renal = test system: UO-31 renal
SF-539 CNS = test system: SF-539 CNS
786-0 renal = test system: 786-0 renal
HCT-116 colon = test system: HCT-116 colon
LXFL 529 NSCLC = test system: LXFL 529 NSCLC
COLO 205 colon = test system: COLO 205 colon
TK-10 renal = test system: TK-10 renal
HT29 colon = test system: HT29 colon
K-562 leukemia = test system: K-562 leukemia
UACC-62 melanoma = test system: UACC-62 melanoma
SW-620 colon = test system: SW-620 colon
SK-MEL-2 melanoma = test system: SK-MEL-2 melanoma
DMS 114 small cell lung = test system: DMS 114 small cell lung
EKVX NSCLC = test system: EKVX NSCLC
OVCAR-8 ovarian = test system: OVCAR-8 ovarian
SF-268 CNS = test system: SF-268 CNS
XF 498 CNS = test system: XF 498 CNS
SK-MEL-28 melanoma = test system: SK-MEL-28 melanoma
LOX IMVI melanoma = test system: LOX IMVI melanoma
SK-OV-3 ovarian = test system: SK-OV-3 ovarian
SNB-19 CNS = test system: SNB-19 CNS
KM20L2 colon = test system: KM20L2 colon
KM12 colon = test system: KM12 colon
SR leukemia = test system: SR leukemia
A498 renal = test system: A498 renal
RPMI-8226 leukemia = test system: RPMI-8226 leukemia
RXF-631 renal = test system: RXF-631 renal
NCI-H226 lung = test system: NCI-H226 lung
HOP-62 NSCLC = test system: HOP-62 NSCLC
HCT-15 colon = test system: HCT-15 colon
UACC-257 melanoma = test system: UACC-257 melanoma

CCOC(=O)C1COc2cc(-c3cc(=O)c4ccccc4o3)ccc2O1 (stereo not drawn)
TGI (MOLT-4 leukemia): > 100 µM | TGI (OVCAR-3 ovarian): > 100 µM | TGI (NCI-H23 lung): > 100 µM | TGI (U251 CNS): > 100 µM | TGI (ACHN renal): > 100 µM | TGI (NCI-H522 lung): > 100 µM | TGI (DLD-1 colon): > 100 µM | TGI (NCI-H460 lung): > 100 µM | TGI (RXF 393 renal): > 100 µM | TGI (SF-295 CNS): > 100 µM | TGI (DMS 273 small cell lung): > 100 µM | TGI (SNB-75 CNS): > 100 µM | TGI (M14 melanoma): > 100 µM | TGI (SK-MEL-5 melanoma): > 100 µM | TGI (OVCAR-4 ovarian): > 100 µM | TGI (IGROV1 ovarian): > 100 µM | TGI (A549 NSCLC): > 100 µM | TGI (HCC-2998 colon): > 100 µM | TGI (OVCAR-5 ovarian): > 100 µM | TGI (MALME-3M melanoma): > 100 µM | TGI (HOP-92 NSCLC): 39.3 µM | TGI (M19-MEL melanoma): > 100 µM | TGI (SNB-78 CNS): > 100 µM | TGI (CCRF-CEM leukemia): > 100 µM | TGI (SN12C renal): > 100 µM | TGI (CAKI-1 renal): > 100 µM | TGI (UO-31 renal): 76.8 µM | TGI (SF-539 CNS): 96.3 µM | TGI (786-0 renal): > 100 µM | TGI (HCT-116 colon): > 100 µM | TGI (LXFL 529 NSCLC): > 100 µM | TGI (COLO 205 colon): > 100 µM | TGI (TK-10 renal): > 100 µM | TGI (HT29 colon): 56.3 µM | TGI (K-562 leukemia): > 100 µM | TGI (UACC-62 melanoma): > 100 µM | TGI (SW-620 colon): > 100 µM | TGI (SK-MEL-2 melanoma): > 100 µM | TGI (DMS 114 small cell lung): > 100 µM | TGI (EKVX NSCLC): > 100 µM | TGI (OVCAR-8 ovarian): 93.6 µM | TGI (SF-268 CNS): > 100 µM | TGI (XF 498 CNS): 96.9 µM | TGI (SK-MEL-28 melanoma): > 100 µM | TGI (LOX IMVI melanoma): > 100 µM | TGI (SK-OV-3 ovarian): > 100 µM | TGI (SNB-19 CNS): > 100 µM | TGI (KM20L2 colon): > 100 µM | TGI (KM12 colon): > 100 µM | TGI (SR leukemia): > 100 µM

CCOC(=O)[C@H]1Nc2ccccc2C2c3ccccc3CC21 (stereo partly drawn)
TGI (MOLT-4 leukemia): > 100 µM | TGI (OVCAR-3 ovarian): > 100 µM | TGI (NCI-H23 lung): > 100 µM | TGI (U251 CNS): > 100 µM | TGI (ACHN renal): > 100 µM | TGI (NCI-H522 lung): > 100 µM | TGI (DLD-1 colon): > 100 µM | TGI (NCI-H460 lung): > 100 µM | TGI (RXF 393 renal): 31.1 µM | TGI (SF-295 CNS): > 100 µM | TGI (DMS 273 small cell lung): > 100 µM | TGI (SNB-75 CNS): > 100 µM | TGI (M14 melanoma): > 100 µM | TGI (SK-MEL-5 melanoma): 54.6 µM | TGI (A498 renal): 61.8 µM | TGI (OVCAR-4 ovarian): > 100 µM | TGI (RPMI-8226 leukemia): > 100 µM | TGI (RXF-631 renal): > 100 µM | TGI (IGROV1 ovarian): > 100 µM | TGI (A549 NSCLC): > 100 µM | TGI (HCC-2998 colon): > 100 µM | TGI (OVCAR-5 ovarian): > 100 µM | TGI (MALME-3M melanoma): > 100 µM | TGI (NCI-H226 lung): > 100 µM | TGI (M19-MEL melanoma): > 100 µM | TGI (SNB-78 CNS): > 100 µM | TGI (SN12C renal): 96.3 µM | TGI (CAKI-1 renal): > 100 µM | TGI (UO-31 renal): > 100 µM | TGI (SF-539 CNS): > 100 µM | TGI (786-0 renal): > 100 µM | TGI (HCT-116 colon): > 100 µM | TGI (HOP-62 NSCLC): > 100 µM | TGI (LXFL 529 NSCLC): > 100 µM | TGI (COLO 205 colon): > 100 µM | TGI (TK-10 renal): > 100 µM | TGI (HT29 colon): 37.2 µM | TGI (K-562 leukemia): > 100 µM | TGI (UACC-62 melanoma): > 100 µM | TGI (SW-620 colon): > 100 µM | TGI (SK-MEL-2 melanoma): > 100 µM | TGI (DMS 114 small cell lung): > 100 µM | TGI (HCT-15 colon): > 100 µM | TGI (OVCAR-8 ovarian): > 100 µM | TGI (UACC-257 melanoma): 56.9 µM | TGI (SF-268 CNS): > 100 µM | TGI (XF 498 CNS): > 100 µM | TGI (SK-MEL-28 melanoma): > 100 µM | TGI (LOX IMVI melanoma): > 100 µM | TGI (SNB-19 CNS): > 100 µM | TGI (KM20L2 colon): > 100 µM | TGI (KM12 colon): > 100 µM | TGI (SR leukemia): > 100 µM
